The nature of series [1]: Solubility in solvents and water. The series is classed as physicochemical.
A short description of series [2]: Emission and AIE properties in solvent mixtures. The series is classed as physicochemical. From the text: FIG. 2 depicts (A) Normalized absorption spectra of DCTB, DCPH and DNTPH in DMSO solution; (B) Normalized fluorescence (PL) spectra of DCTB, DCPH and DNTPH in aggregates; (C) Plot of the changes in fluorescence intensity with different water fraction (fw, in volume percentage, vol %), where I0 and I are the maximal fluorescence intensity recorded before and after adding water into the THF solution of DCTB. (D) Plot of the changes in fluorescence intensity with different toluene fractions (ft, in volume percentage, vol %), where I0 and I are the maximal fluorescence intensity recorded before and after adding toluene into the DMSO solution of DCPH and DNTPH respectively. [AIE dyes]=10 μM.
DCTB and DCPH were synthesized and their structure-activity relationship was investigated (FIG. 1).
However, to achieve a more obvious emission enhancement with low background signals, the TICT and AIE properties can be further modified. […] DNTPH was non-emissive in aqueous solution, and its NIR fluorescence at 683 nm was continuously intensified until the volume fraction of toluene (ft) […] was increased to about 40-fold (FIG. 2D). In addition, initial weedy fluorescence intensity of DNTPH in aqueous solution and the outstanding emission enhancement behavior in the aggregated state made it an ideal candidate for detecting protein fibrillogenesis, like Aβ aggregates.

The next series addresses Aβ42 fibril (Homo sapiens, UniProt P05067). In words: Fluorescent response upon binding to Aβ42 fibrils in phosphate buffer. As to conditions: titrated with Aβ42 fibril in phosphate buffer; dye 1 μM. On the procedure: FIG. 4 depicts determination of the binding constant of DNTPH for Aβ42 aggregates. (A) Plot of the PL intensity as a function of the concentration of DNTPH in the presence of Aβ42 aggregates (3 μM) in PBS solution (pH=7.4); (B)Response time of DNTPH binding to Aβ42 aggregates. […] (D) Ultrahigh S/N ratio of DNTPH toward Aβ42 aggregates compared to the background signals in PBS and that towards BSA.
It was investigated whether DNTPH has a fluorescent response upon binding to Aβ aggregates. When DNTPH was titrated with the Aβ42 fibril in phosphate buffer, a strong and progressive increase (up to about 18-fold) in red fluorescence intensity concomitant was observed, which took ˜30 min to reach a plateau. Without wishing to be bound by theory, it is believed that DNTPH is capable of binding hydrophobic surfaces in aggregated amyloid fibrils with the help of the binding unit, resulting in the decrease of conformational freedom and rotational restriction. […] That is because these three probes show high background signals, which results in low S/N ratio even with a decent fluorescent response to testing objects.

Another series deals with PC12 cell. In words: MTT cytotoxicity assay in PC12 cells. The series is classed as cell-based. On the procedure: FIG. 7 depicts (A) Cytotoxicity towards […] PC-12 cells of Aβ monomer under 24 h and 48 h incubation. (B) Cytotoxicity of Aβ fibrils under 24 h and 48 h incubation. […] (D) Cell viability of different concentrations of DNTPH towards PC-12 cells under 24 h and 48 h incubation.
In general terms: Tetrazolium assays rely on reduction of a dye to a coloured formazan, in cell work by metabolically active cells.

Aβ42 fibril, sequence (P05067 672-713 limits assumed): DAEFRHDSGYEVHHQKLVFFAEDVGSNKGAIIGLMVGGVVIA

`CCN(CC)c1ccc2cc(C=Cc3cc[n+](CCO)cc3)c(=O)oc2c1.[Br-]` [DCPH]: in series [1], the solubility result was “more soluble in water and polar solvent”. The emission maximum in series [2] was found to be 690 nm. Moreover, the “PL intensity enhancement in aggregates compared with DMSO solution” value in series [2] (DMSO/toluene mixtures, 99% toluene fraction (ft)) was “about 2 fold”.

With `CCN(CC)c1ccc2cc(C=C(C#N)c3nc4ccccc4s3)c(=O)oc2c1` [DCTB], the solubility entry in series [1] is given as “soluble in THF but aggregated in water”. Further, the emission maximum in series [2] was found to be 601 nm. Besides, in series [2] (THF/water, water fraction (fw) 70%), the “AIE effect, fluorescence intensity increase” value is given as “less than 2 fold”.

For the molecule `Cc1ccc2c(c1)sc(-c1ccc(N(C)C)cc1)[n+]2C.[Cl-]` [ThT, thioflavin T], the “increase in fluorescence intensity (fluorescent response) to Aβ42 fibril” value on Aβ42 fibril is reported as 5 fold.

In turn, Aβ monomer: monomeric amyloid-β peptide came in with a cell death in the series with PC12 cell (20 μM, 48 h incubation) of 50%. Further, the cytotoxicity result in the series with PC12 cell (5-20 μM, less than 24 h of exposure) is “No significant cytotoxicity”.

The values above are taken from patent US12433962B2, “Probes for imaging b-amyloid and inhibition of β-amyloid aggregation” (The Hong Kong University of Science and Technology, priority 2021, dated 2025).
